Results from patent US20220267753A1, “RATIONAL THERAPEUTIC TARGETING OF ONCOGENIC IMMUNE SIGNALING STATES IN MYELOID MALIGNANCIES VIA THE UBIQUITIN CONJUGATING ENZYME UBE2N” (CHILDREN'S HOSPITAL MEDICAL CENTER, priority 2019, published 2022).

Assays:
Cord Blood CD34+ = experiment: Cell proliferation MTS assay; assay type: cell-based, human
Procedure: AML cell lines (5×10^3 cells/well) were seeded in 96-well plates and grown for 24 to 96 h in serum (10%)-containing medium in the presence or absence of inhibitors at the indicated concentrations. Proliferation was analyzed by means of an MTS assay using the CellTiter 96 Aqueous One Solution Cell Proliferation Assay (Promega, Madison, Wis., USA), according to the manufacturer's instructions. Data are mean with standard deviation from three independent experiments in technical triplicates. For the screening of 160 compounds from the UC library, the cell metabolic activity was assessed at 24 hours of treatment of MOLM-13 cells. Top 15 candidates were re-screened at 2 μM, and the cell metabolic activity was determined at 24 hours of treatment. In certain experiments, cell viability was determined by staining the cells with trypan blue at a 1/2 dilution and counting total number of viable cells upon treatment with UC-764864 or DMSO control. The cells were counted daily for 4 days using an automated cell counter (Countess II FL from Life Technologies). […] UC-764864 was added at the indicated concentrations and cells were incubated with drug for 3 days, at which point cell viability was measured by MTS according to manufacturer's instructions.

UBE2N wild type = molecular target: T1, UBE2N wild type (Homo sapiens, UniProt P61088); experiment: Differential scanning fluorimetry (DSF); assay type: binding; settings: recombinant UBE2N protein
T1 construct: purchased Life sensors UB218
T1 sequence (P61088 1-152): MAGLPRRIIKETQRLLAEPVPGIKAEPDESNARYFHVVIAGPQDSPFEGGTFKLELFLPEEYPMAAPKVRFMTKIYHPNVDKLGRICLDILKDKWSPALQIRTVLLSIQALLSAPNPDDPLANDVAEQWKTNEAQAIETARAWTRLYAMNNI
Procedure: (§1) Recombinant UBE2N (2 .tg; Life sensors #UB218) in 3 .tl of buffer containing 20 mM Tris-HCl pH 7.4, 10 mM DTT, 10% glycerol, 150 mM NaCl and 0.02% DMSO as well as six samples of 1 .tg UBE2N mixed with 0.2 .tg of UC-764864 or UC-764865 were diluted to 50 ng/uL in 0.1% formic acid (FA) in preparation of MALDI-TOF analysis. Two .tl aliquots from the samples were used to make a 1:5 dilution with MALDI matrix (5 mg/mL sinapic acid in 60% ACN/0.1% formic acid) with 1 .tL spotted onto the target plate for analysis. For UBE2N C87S mutant, recombinant protein was purchased from Genescript. 2 micrograms of protein as well as 3 samples of UBE2N C87S were mixed with 0.4 micrograms of UC-764864 and UC-764865 in 10 microliters of buffer containing 20 mM Tris HCl pH 7.4, 1 mM DTT, 150 mM NaCl and ˜0.01% of DMSO in each sample. All mixtures were brought up to 40 ul by adding 30 ul of 0.1% formic acid (FA). 5 ul aliquots from the samples were used to make a 1:5 dilution with MALDI matrix as described above. […] The temperature was raised in 1° C. increments from 25° C. to 95° C. and fluorescence was measured at 530 nm. Derivative Tm was determined using Protein Thermal Shift Software version 1.3 by Applied Biosystems and then were analyzed with Prism 6 (GraphPad Software Inc.).

UBE2N C87S = molecular target: T2, UBE2N C87S (Homo sapiens, UniProt P61088, C87S); experiment: Differential scanning fluorimetry (DSF); assay type: binding
T2 construct: purchased Genescript
T2 sequence (P61088 whole entry C87S): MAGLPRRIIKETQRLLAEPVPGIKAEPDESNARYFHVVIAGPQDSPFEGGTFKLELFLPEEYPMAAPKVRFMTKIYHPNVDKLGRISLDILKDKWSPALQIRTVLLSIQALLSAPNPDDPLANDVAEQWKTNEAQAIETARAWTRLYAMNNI
Procedure: as §1

CCc1ccc(C(=O)C=CSc2nc3ccc(C)cc3[nH]2)cc1 [UC-764864, 1-(4-ethylphenyl)-3-[(6-methyl-1H-benzimidazol-2-yl)sulfanyl]prop-2-en-1-one]
proliferation capacity of cord blood CD34+ cells (Cord Blood CD34+): did not affect
IC50 (Cord Blood CD34+; Homo sapiens, Cord Blood CD34+, MTS, 24 hours): > 10 µM

COc1ccc(C(=O)C=CSc2nc3ccc(C)cc3[nH]2)cc1 [UC-764865, 1-(4-methoxyphenyl)-3-[(6-methyl-1H-benzimidazol-2-yl)sulfanyl]prop-2-en-1-one]
change in melting temperature (Tm) (UBE2N wild type): −2 C degrees
change in Tm of UBE2N(C87S) (UBE2N C87S): did not change
